ChEMBL document CHEMBL1201862, “PubChem BioAssay data set” (2004)
Values joined by “and” are separate entries in the source; they are usually repeats but may differ in a detail not shown here. Identical values can stand only once. Active and inactive are the calls of the source.

Tests used:
[1] = target: T1, Sentrin-specific protease 8 (Homo sapiens, UniProt Q96LD8); assay type: functional
T1 sequence (Q96LD8 whole entry): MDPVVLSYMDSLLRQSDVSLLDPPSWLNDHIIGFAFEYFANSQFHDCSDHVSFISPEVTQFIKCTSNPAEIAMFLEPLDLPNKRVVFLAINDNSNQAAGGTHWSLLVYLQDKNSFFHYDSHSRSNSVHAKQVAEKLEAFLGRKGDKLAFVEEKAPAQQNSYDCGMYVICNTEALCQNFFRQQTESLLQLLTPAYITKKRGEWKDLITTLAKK

SN12K1 = experiment: cells; assay type: functional; conditions: Homo sapiens
INS1 = experiment: beta cell apoptosis inhibitors, cytokine rescue, dose response, luminescence, retest (AID 449756); assay type: functional, cell-based; conditions: Rattus norvegicus;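 note: cell death triggered by IL-1 beta plus TNF-alpha plus IFN-gamma mixture; protective hits raise ATP signal compared with cytokine alone wells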
P388 = experiment: cells; assay type: functional; conditions: Mus musculus
[2] = target: T2, DNA repair protein RAD52 homolog (Homo sapiens, UniProt P43351); assay type: functional, biochemical
T2 sequence (P43351 whole entry): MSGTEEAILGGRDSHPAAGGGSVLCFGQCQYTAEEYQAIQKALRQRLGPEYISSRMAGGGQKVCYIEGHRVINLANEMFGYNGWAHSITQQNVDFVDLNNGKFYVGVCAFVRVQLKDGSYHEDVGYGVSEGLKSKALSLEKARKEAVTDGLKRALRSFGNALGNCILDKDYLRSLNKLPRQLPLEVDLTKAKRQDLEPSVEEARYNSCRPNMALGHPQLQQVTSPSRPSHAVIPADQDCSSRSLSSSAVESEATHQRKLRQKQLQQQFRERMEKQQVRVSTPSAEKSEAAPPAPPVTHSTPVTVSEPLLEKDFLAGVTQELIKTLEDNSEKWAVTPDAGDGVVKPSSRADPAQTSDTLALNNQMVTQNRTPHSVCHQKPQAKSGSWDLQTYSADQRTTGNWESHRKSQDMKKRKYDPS

[3] = target: T1, Sentrin-specific protease 8; assay type: functional; remark: listed apart in the source
P388/ADR = experiment: cells; assay type: functional; conditions: Mus musculus
[4] = HeLa 4N DNA content increase, dose response, cell-based, IC50 (AID 1117351); assay type: functional
[5] = HeLa 2N DNA content increase, dose response, cell-based, IC50 (AID 1117349); assay type: functional
[6] = target: T3, Oxysterols receptor LXR-beta (Homo sapiens, UniProt P55055); experiment: LXR agonists, Gal4 luciferase reporter, dose response, counter-screen for ssDAF-12 agonist project, cell-based, luminescence, HEK293, S. stercoralis campaign (AID 720737); assay type: functional; conditions: read-out: IC50 (the source's name)
T3 sequence (P55055 whole entry): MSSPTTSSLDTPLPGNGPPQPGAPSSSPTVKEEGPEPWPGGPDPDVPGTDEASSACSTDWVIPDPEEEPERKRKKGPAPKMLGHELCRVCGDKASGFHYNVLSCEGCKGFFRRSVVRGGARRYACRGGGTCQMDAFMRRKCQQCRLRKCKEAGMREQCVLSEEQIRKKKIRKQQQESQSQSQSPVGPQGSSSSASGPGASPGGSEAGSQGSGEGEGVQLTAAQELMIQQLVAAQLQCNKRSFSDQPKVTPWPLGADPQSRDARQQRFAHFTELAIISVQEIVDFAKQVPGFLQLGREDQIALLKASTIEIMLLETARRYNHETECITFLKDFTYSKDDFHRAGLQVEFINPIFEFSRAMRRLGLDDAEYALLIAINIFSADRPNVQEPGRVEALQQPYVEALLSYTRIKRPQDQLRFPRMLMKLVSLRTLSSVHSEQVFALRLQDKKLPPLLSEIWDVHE

[7] = Luminescence-based cell-based high throughput dose response assay to identify activators of the DAF-12 from the parasite S. stercoralis (ssDAF-12).; assay type: functional
cells [8] = assay type: functional
Streptokinase A = target: T4, Streptokinase A (Streptococcus pyogenes serotype M1, UniProt P10520); experiment: S. pyogenes streptokinase expression inhibitors, potency, dose response, plasminogen activation absorbance, OD405 (AID 1914); assay type: functional, Streptococcus pyogenes M1 GAS;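 note: secreted streptokinase activity via plasminogen activation per viability signal from cell pellet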
T4 sequence (P10520 whole entry): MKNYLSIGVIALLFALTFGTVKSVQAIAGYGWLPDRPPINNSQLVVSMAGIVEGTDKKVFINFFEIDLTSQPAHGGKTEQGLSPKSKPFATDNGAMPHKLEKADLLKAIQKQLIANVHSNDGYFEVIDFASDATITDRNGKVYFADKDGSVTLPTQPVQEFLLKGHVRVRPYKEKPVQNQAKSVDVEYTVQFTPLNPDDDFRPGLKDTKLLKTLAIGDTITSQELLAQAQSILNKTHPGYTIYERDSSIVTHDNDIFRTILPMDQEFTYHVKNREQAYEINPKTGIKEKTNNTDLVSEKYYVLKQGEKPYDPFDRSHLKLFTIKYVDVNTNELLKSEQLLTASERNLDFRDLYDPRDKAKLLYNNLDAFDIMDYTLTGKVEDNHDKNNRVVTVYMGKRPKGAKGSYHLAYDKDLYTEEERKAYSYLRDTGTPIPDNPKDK

[9] = tested on: Streptococcus sp. 'group A'; experiment: growth inhibition of control SK(-) GAS strain, dose response, counter-screen for streptokinase expression inhibitor project, luminescence, kanamycin, BacTiterGlo, confirmation (AID 1900); assay type: functional, organism-based
[10] = TB: CFU replicating Measured in Microorganism System Using Imaging - 7108-05_Inhibitor_Dose_DryPowder_Activity_Set2.; assay type: functional
[11] = THP-1 cell cytotoxicity, dose response, cytotoxicity control for non-replicating M. tuberculosis project (AID 489025); assay type: functional
Streptococcus = experiment: Group A Streptococcus viability loss, dose response, counter-screen for streptokinase expression inhibitor project, luminescence, BacTiterGlo (AID 1915); assay type: functional, organism-based;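 note: potency for reduction of bacterial viability or growth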
[12] = target: G-protein coupled receptor 55 (Homo sapiens, UniProt Q9Y2T6); experiment: GPR55 agonists via beta-arrestin recruitment, primary screen, imaging, U2OS cells, beta-arrestin-GFP redistribution (AID 1961); assay type: functional
[13] = Shn3 3'UTR reporter inhibitors, dose response, cell-based, Clone20 osteoblasts, firefly luciferase, cherry-picked (AID 624132); assay type: functional;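 note: firefly luciferase luminescence from reporter carrying the Shn3 3'UTR in osteoblasts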
[14] = control 3'UTR Renilla luciferase suppression, dose response, counter-screen for Shn3 inhibitor project, cell-based, Clone20-Shn3RL, cherry-picked (AID 624133); assay type: functional
Galanin receptor type 3 = target: T5, Galanin receptor type 3 (Homo sapiens, UniProt O60755); experiment: Fluorescence-based cell-based primary high throughput dose response assay to identify antagonists of the Galanin Receptor 3 (GalR3).; assay type: functional
T5 sequence (O60755 whole entry): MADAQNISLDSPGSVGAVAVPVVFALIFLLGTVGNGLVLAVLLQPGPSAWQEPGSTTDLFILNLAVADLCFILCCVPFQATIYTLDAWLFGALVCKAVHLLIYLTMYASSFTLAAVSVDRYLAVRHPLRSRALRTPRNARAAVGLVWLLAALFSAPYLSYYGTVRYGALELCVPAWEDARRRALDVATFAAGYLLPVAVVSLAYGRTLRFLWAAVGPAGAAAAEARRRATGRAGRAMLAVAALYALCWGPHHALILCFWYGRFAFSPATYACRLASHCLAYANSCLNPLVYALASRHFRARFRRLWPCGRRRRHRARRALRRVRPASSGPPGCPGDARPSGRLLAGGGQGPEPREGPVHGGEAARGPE

[15] = target: E3 ubiquitin-protein ligase Mdm2 (Homo sapiens, UniProt Q00987); experiment: enhancers of MDM2-luciferase reporter signal, concentration-effect titration, project on inhibitors of MDM2 ubiquitin ligase, cellular assay, luminescent readout, 384-well plate format (AID 1394); assay type: functional;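 note: MDM2 E3 inhibitors raise luminescence so EC50 is for signal enhancement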
cells [16] = assay type: functional, cell-based; conditions: HEK-CNG

G-protein coupled receptor 55, sequence (Q9Y2T6 whole entry): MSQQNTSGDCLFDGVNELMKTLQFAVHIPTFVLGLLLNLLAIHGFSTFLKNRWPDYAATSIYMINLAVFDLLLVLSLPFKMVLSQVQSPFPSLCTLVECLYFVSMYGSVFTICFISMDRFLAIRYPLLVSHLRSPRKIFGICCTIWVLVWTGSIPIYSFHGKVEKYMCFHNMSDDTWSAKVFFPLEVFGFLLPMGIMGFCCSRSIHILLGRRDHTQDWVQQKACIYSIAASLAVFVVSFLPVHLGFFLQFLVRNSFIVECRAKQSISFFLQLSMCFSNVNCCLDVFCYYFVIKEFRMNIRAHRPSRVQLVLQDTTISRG
E3 ubiquitin-protein ligase Mdm2, sequence (Q00987 whole entry): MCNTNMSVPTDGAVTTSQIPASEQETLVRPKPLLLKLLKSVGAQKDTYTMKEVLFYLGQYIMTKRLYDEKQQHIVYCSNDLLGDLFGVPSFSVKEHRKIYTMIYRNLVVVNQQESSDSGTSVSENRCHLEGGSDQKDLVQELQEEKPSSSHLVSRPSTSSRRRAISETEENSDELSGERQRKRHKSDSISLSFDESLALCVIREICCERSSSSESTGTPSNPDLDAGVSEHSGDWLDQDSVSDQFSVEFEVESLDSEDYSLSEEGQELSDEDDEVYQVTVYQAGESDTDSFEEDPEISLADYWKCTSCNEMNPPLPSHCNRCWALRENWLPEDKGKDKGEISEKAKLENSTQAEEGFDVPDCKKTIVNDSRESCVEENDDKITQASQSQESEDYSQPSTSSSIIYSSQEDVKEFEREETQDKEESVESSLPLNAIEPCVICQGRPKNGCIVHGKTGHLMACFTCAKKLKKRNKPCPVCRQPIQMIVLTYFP

Q: What does the source list for `COc1ccc2cc3[n+](cc2c1OC)CCc1cc2c(cc1-3)OCO2` [BERBERINE CHLORIDE]?
A: IC50 [1]: 7.66 µM (active); GI50 (SN12K1): 3.93 µM (inactive); AC50 (INS1): 3.25 µM (active); GI50 (P388): 1.87 µM (inactive); AC50 [2]: 2.38 µM (active) and 5.69 µM (active); IC50 [3]: > 100 µM (inactive); GI50 (P388/ADR): 102 µM (inactive); IC50 [4]: > 10 µM (inactive); IC50 [5]: > 10 µM (inactive)

Q: Which results are given for `Cc1ccc([N+](=O)[O-])cc1NC(=O)C1CCCC1`?
A: EC50 [6]: > 67.5 µM (inactive); IC50 [7]: > 67.5 µM (inactive)

Q: For `Cn1c(NC(=O)c2ccccc2)nc2ccccc21`, which IC50 (cells [8]) is on record?
A: Its IC50 is 2.41 µM (active).

Q: What about the EC50 (Streptokinase A) of the same compound?
A: The EC50 was > 150 µM (not active).

Q: And the EC50 [9]?
A: The EC50 was 14.8 µM (active).

Q: What about the AbsAC90 [10] of the same compound?
A: Its AbsAC90 is 299.99 µM.

Q: What about the CC50 [11] of the same compound?
A: The CC50 was > 40 µM (active).

Q: And the EC50 (Streptococcus)?
A: The EC50 was > 150 µM (not active).

Q: Which EC50 [12] does the source give for `COc1ccccc1-c1cc(C(F)(F)F)nc(S(=O)(=O)CCCC(=O)Nc2cccnc2Cl)n1` here?
A: The EC50 was 2.94 µM (active).

Q: What about the AC50 [13] of the same compound?
A: Its AC50 is 10.6 µM (active).

Q: And the AC50 [14]?
A: The AC50 was 13.1 µM (active).

Q: And the IC50 (Galanin receptor type 3)?
A: Its IC50 is > 29.9 µM (inactive).

Q: And the EC50 [15]?
A: Its EC50 is 2 µM (not active).

Q: What about the EC50 (cells [16]) of the same compound?
A: The EC50 was > 29.9 µM (inactive).
